In patent publication US12662469B2 (SIRONAX LTD, priority 2018, dated 2026):
Like-named read-outs stand apart in the source and are kept apart here.

Tested on: Cell Necrosis
Assay: Cell necrosis assay / cell viability assay (necrosis inhibitor activity)
Type: cell-based
Conditions: necrosis inhibitor activity, read-out: EC50
[1] = EC data for 14-191 extrapolated

SMILES | EC50 [1] [nM] | EC50 (compounds outside 14-191) [nM]
O=C1NCc2cc(OC3CN(C(=O)N4N=CCC4c4cc(F)cc(F)c4)C3)ccc21 (centres unmarked) [Compound 167] | 1 to 1000 | 
O=C(N1CC(=Cc2ccccc2F)C1)N1N=CCC1c1cc(F)cc(F)c1 (centres unmarked) [Compound 56, (5-(3,5-difluorophenyl)-4,5-dihydro-1H-pyrazol-1-yl)(3-(2-fluorobenzylidene)azetidin-1-yl)methanone] | 1 to 1000 | 
CC1Oc2cc(F)c(OC3CN(C(=O)N4N=CC[C@H]4c4ccccc4)C3)cc2NC1=O (stereo partly drawn) [Compound 352, 7-fluoro-2-methyl-6-((1-((S)-5-phenyl-4,5-dihydro-1H-pyrazole-1-carbonyl)azetidin-3-yl)oxy)-2H-benzo[b][1,4]oxazin-3(4H)-one] |  | 1 to 1000
C[C@@H]1CN(c2ncc(F)cn2)C[C@@H](C)N1C(=O)N1N=CCC1c1ccccc1 (stereo partly drawn) [Compound 122, ((2R,6R)-4-(5-fluoropyrimidin-2-yl)-2,6-dimethylpiperazin-1-yl)(5-phenyl-4,5-dihydro-1H-pyrazol-1-yl)methanone] | 1000 to 10000 | 
O=C(N1CC(Cc2ccccc2F)C1)N1N=CCC1c1ccccc1 (centres unmarked) [Compound 40, (3-(2-fluorobenzyl)azetidin-1-yl)(5-phenyl-4,5-dihydro-1H-pyrazol-1-yl)methanone] | 1 to 1000 | 
N#Cc1cc(Cl)nc(O[C@H]2CCN(C(=O)N3N=CC[C@H]3c3cc(F)cc(F)c3)C2)c1 [Compound 330, 2-chloro-6-(((S)-1-((S)-5-(3,5-difluorophenyl)-4,5-dihydro-1H-pyrazole-1-carbonyl)pyrrolidin-3-yl)oxy)isonicotinonitrile] |  | 1 to 1000
N#Cc1ccnc(N2CCN(C(=O)N3N=CC[C@H]3c3cc(F)cc(F)c3)CC2)c1 [Compound 232, (S)-2-(4-(5-(3,5-difluorophenyl)-4,5-dihydro-1H-pyrazole-1-carbonyl)piperazin-1-yl)isonicotinonitrile] |  | 1 to 1000
NC(=O)c1cc(OC2CN(C(=O)N3N=CC[C@H]3c3cc(F)cc(F)c3)C2)c(F)cc1F [Compound 239, (S)-5-((1-(5-(3,5-difluorophenyl)-4,5-dihydro-1H-pyrazole-1-carbonyl)azetidin-3-yl)oxy)-2,4-difluorobenzamide] |  | 1 to 1000
CC1Oc2cc(F)c(OC3CN(C(=O)N4N=CC[C@H]4c4cc(F)cc(C#N)c4)C3)cc2NC1=O (stereo partly drawn) [Compound 351, 3-fluoro-5-((5S)-1(3-((7-fluoro-2-methyl-3-oxo-3,4-dihydro-2H-benzo[b][1,4]oxazin-6-yl)oxy)azetidine-1-carbonyl)-4,5-dihydro-1H-pyrazol-5. yl)benzonitrile] |  | 1 to 1000
NC(=O)c1ccc(OC2CN(C(=O)N3N=CCC3c3cc(F)cc(F)c3)C2)cc1 (centres unmarked) [Compound 130, 4-((1-(5-(3,5-difluorophenyl)-4,5-dihydro-1H-pyrazole-1-carbonyl)azetidin-3-yl)oxy)benzamide] | 1 to 1000 | 
O=C(N1CC(=Cc2ccc(Cl)nc2Cl)C1)N1N=CC[C@H]1c1cc(F)cc(F)c1 [Compound 316, (S)-(3-((2,6-dichloropyridin-3-yl)methylene)azetidin-1-yl)(5-(3,5-difluorophenyl)-4,5-dihydro-1H-pyrazol-1-yl)methanone] |  | 1 to 1000
O=C(N1Cc2ccccc2C1)N1N=CCC1c1ccccc1 (centres unmarked) [Compound 13, Isoindolin-2-yl(5-phenyl-4,5-dihydro-1H-pyrazol-1-yl)methanone] |  | 1 to 1000
O=C(N1CC(Oc2ccc(F)cc2F)C1)N1N=CCC1c1cccc(F)c1 (centres unmarked) [Compound 75, (3-(2,4-difluorophenoxy)azetidin-1-yl)(5-(3-fluorophenyl)-4,5-dihydro-1H-pyrazol-1-yl)methanone] | 1 to 1000 | 
N#Cc1cnc(OC2CN(C(=O)N3N=CCC3c3ccccc3)C2)s1 (centres unmarked) [Compound 120, 2-((1-(5-phenyl-4,5-dihydro-1H-pyrazole-1-carbonyl)azetidin-3-yl)oxy)thiazole-5-carbonitrile] | 1000 to 10000 | 
O=C(N1CC(Cc2ccc(F)cc2Cl)C1)N1N=CCC1c1ccccc1 (centres unmarked) [Compound 52, (3-(2-chloro-4-fluorobenzyl)azetidin-1-yl)(5-phenyl-4,5-dihydro-1H-pyrazol-1-yl)methanone] | 1 to 1000 | 
O=C(N1CCCCC1)N1N=CCC1c1ccccc1 (centres unmarked) [Compound 7, (5-phenyl-4,5-dihydro-1H-pyrazol-1-yl)(piperidin-1-yl)methanone] |  | 1 to 1000
O=C(N1CC(Oc2ccc3occc3c2)C1)N1N=CCC1c1cc(F)cc(F)c1 (centres unmarked) [Compound 216, (3-(benzofuran-5-yloxy)115zetidine-1-yl)(5-(3,5-difluorophenyl)-4,5-dihydro-1H-pyrazol-1-yl)methanone] |  | 1 to 1000
N#Cc1cccc(N2CCN(C(=O)N3N=CC[C@H]3c3cc(F)cc(F)c3)CC2)n1 [Compound 233, (S)-6-(4-(5-(3,5-difluorophenyl)-4,5-dihydro-1H-pyrazol-1-carbonyl)piperazin-1-yl)picolinonitrile] |  | 1 to 1000
O=C1NCc2cc(OC3CN(C(=O)N4N=CCC4c4cc(F)cc(F)c4)C3)ccc21 (centres unmarked) [Compound 180] | 1 to 1000 | 

SMILES | EC50 [1] [nM] | EC50 (compounds outside 14-191) [nM]
O=C1Cc2ccc(OC3CN(C(=O)N4N=CC[C@H]4c4cc(F)cc(F)c4)C3)cc2N1 [Compound 209, (S)-6-((1-(5-(3,5-difluorophenyl)-4,5-dihydro-1H-pyrazole-1-carbonyl)azetidin-3-yl)oxy)indolin-2-one] |  | 1 to 1000
O=C1COc2cc(F)c(OC3CN(C(=O)N4N=CC[C@H]4c4cc(F)cc(F)c4)C3)cc2N1 [Compound 193, (S)-6-((1-(5-(3,5-difluorophenyl)-4,5-dihydro-1H-pyrazole-1-carbonyl)azetidin-3-yl)oxy)-7-fluoro-2H-benzo[b][1,4]oxazin-3(4H)-one] |  | 1 to 1000
Cc1n[nH]c2cc(C=C3CN(C(=O)N4N=CC[C@H]4c4cc(F)cc(F)c4)C3)ccc12 [Compound 289, (S)-(5-(3,5-difluorophenyl)-4,5-dihydro-1H-pyrazol-1-yl)(3-((3-methyl-1H-indazol-6-yl)methylene)azetidin-1-yl)methanone] |  | 1 to 1000
C[C@H]1CN(c2ncccn2)CCN1C(=O)N1N=CCC1c1ccccc1 (stereo in doubt) [Compound 112B, (S)-(2-methyl-4-(pyrimidin-2-yl)piperazin-1-yl)(5-phenyl-4,5-dihydro-1H-pyrazol-1-yl)methanone] | 1000 to 10000 | 
Nc1ccn(CC2CN(C(=O)N3N=CC[C@H]3c3cc(F)cc(F)c3)C2)c1 [Compound 298, (S)-(3-((3-amino-H-pyrrol-1-yl)methyl)azetidin-1-yl)(5-(3,5-difluorophenyl)-4,5-dihydro-1H-pyrazol-1-yl)methanone] |  | 1 to 1000
O=C(N1CCN(c2ccncn2)CC1)N1N=CCC1c1ccccc1 (centres unmarked) [Compound 90, (5-phenyl-4,5-dihydro-1H-pyrazol-1-yl)(4-(pyrimidin-4-yl)piperazin-1-yl)methanone] | 1000 to 10000 | 
O=C(N1CC(=Cc2ccc(Cl)nc2F)C1)N1N=CC[C@H]1c1cncc(F)c1 [Compound 294, (S)-(3-((6-chloro-2-fluoropyridin-3-yl)methylene)azetidin-1-yl)(5-(5-fluoropyridin-3-yl)-4,5-dihydro-1H-pyrazol-1-yl)methanone] |  | 1 to 1000
O=C1COc2cccc(O[C@@H]3CCN(C(=O)N4N=CC[C@H]4c4cc(F)cc(F)c4)C3)c2N1 [Compound 243, 5-(((R)-1-((S)-5-(3,5-difluorophenyl)-4,5-dihydro-1H-pyrazole-1-carbonyl)pyrrolidin-3-yl)oxy)-2H-benzo[b][1,4]oxazin-3(4H)-one] |  | 1 to 1000
O=C1COc2ccc(OC3CN(C(=O)N4N=CC[C@H]4c4ccccc4)C3)cc2N1 [Compound 199, (S)-6-((1-(5-phenyl-4,5-dihydro-1H-pyrazole-1-carbonyl)azetidin-3-yl)oxy)-2H-benzo[b][1,4]oxazin-3(4H)-one] |  | 1 to 1000
N#Cc1nccc(OC2CN(C(=O)N3N=CC[C@H]3c3cc(F)cc(F)c3)C2)n1 [Compound 265, (S)-4-((1-(5-(3,5-difluorophenyl)-4,5-dihydro-1H-pyrazole-1-carbonyl)azetidin-3-yl)oxy)pyrimidine-2-carbonitrile] |  | 1 to 1000
NC(=O)c1c(F)cc(OC2CN(C(=O)N3N=CCC3c3cc(F)cc(F)c3)C2)cc1Cl (centres unmarked) [Compound 157] | 1 to 1000 | 
O=C(N1CC(=Cc2ccc(F)cc2Cl)C1)N1N=CCC1c1cc(F)cc(F)c1 (centres unmarked) [Compound 139, (3-(2-chloro-4-fluorobenzylidene)azetidin-1-yl)(5-(3,5-difluorophenyl)-4,5-dihydro-1H-pyrazol-1-yl)methanone] | 1 to 1000 | 
NC(=O)CCNc1ncc(F)c(OC2CN(C(=O)N3N=CC[C@H]3c3cc(F)cc(F)c3)C2)n1 [Compound 270, (S)-3-((4-((1-(5-(3,5-difluorophenyl)-4,5-dihydro-1H-pyrazole-1-carbonyl)azetidin-3-yl)oxy)-5-fluoropyrimidin-2-yl)amino)propanamide] |  | 1 to 1000
N#Cc1nc(O[C@@H]2CCN(C(=O)N3N=CC[C@H]3c3cc(F)cc(F)c3)C2)ccc1Cl [Compound 339, 3-chloro-6-(((R)-1-((S)-5-(3,5-difluorophenyl)-4,5-dihydro-1H-pyrazole-1-carbonyl)pyrrolidin-3-yl)oxy)picolinonitrile] |  | 1 to 1000
O=C1Cc2ccc(OC3CN(C(=O)N4N=CCC4c4cc(F)cc(F)c4)C3)cc2N1 (centres unmarked) [Compound 224, 6-((1-(5-(3,5-difluorophenyl)-4,5-dihydro-1H-pyrazole-1-carbonyl)azetidin-3-yl)oxy)indolin-2-one] |  | 1 to 1000
O=C(N1CC(=Cc2ccc(F)nc2)C1)N1N=CCC1c1cc(F)cc(F)c1 (centres unmarked) [Compound 305, (5-(3,5-difluorophenyl)-4,5-dihydro-1H-pyrazol-1-yl)(3-((6-fluoropyridin-3-yl)methylene)azetidin-1-yl)methanone] |  | 1 to 1000
C[C@H]1CN(c2ncc(F)cn2)CCN1C(=O)N1N=CCC1c1ccccc1 (stereo in doubt) [Compound 111A, (S)-(4-(5-fluoropyrimidin-2-yl)-2-methylpiperazin-1-yl)(5-phenyl-4,5-dihydro-1H-pyrazol-1-yl)methanone] | 1 to 1000 | 
NC(=O)c1ccc(OC2CN(C(=O)N3N=CCC3c3cc(F)cc(F)c3)C2)cc1F (centres unmarked) [Compound 155] | 1 to 1000 | 
O=C(C1CC1)N1CCN(C(=O)N2N=CCC2c2ccccc2)CC1 (centres unmarked) [Compound 93, (4-(cyclopropanecarbonyl)piperazin-1-yl)(5-phenyl-4,5-dihydro-1H-pyrazol-1-yl)methanone] | 1000 to 10000 | 
